Assay results: patent US11858946B2, “Small molecules active against gram-negative bacteria” (The Board of Trustees of the University of Illinois, priority 2016, dated 2024)
In brackets after ≈: the same amount, converted by molar mass. Like-named read-outs stand apart in the source and are kept apart here.

Columns and labels:
[1] = tested on: E. coli, Acinetobacter baumannii, Klebsiella pneumoniae, Enterobacter cloacae, and Pseudomonas aeruginosa; assay: Antibiotic susceptibility test (microdilution broth), expanded panel of Gram-negative pathogens; assay type: cell-based; conditions: for activity against expanded panel of Gram-negative pathogens (in words): laboratory strains and clinical isolates of ESKAPE pathogens
Procedure: (§1) 6DNM and its derivatives were further evaluated against an expanded panel of Gram-negative pathogens, laboratory strains and clinical isolates of ESKAPE pathogens E. coli, Acinetobacter baumannii, Klebsiella pneumoniae, Enterobacter cloacae, and Pseudomonas aeruginosa (Table 1 of FIG. 19).
(§2) Susceptibility testing was performed in triplicate, using the microdilution broth method as outlined by the Clinical and Laboratory Standards Institute. Mueller Hinton (MH) broth was used.

E. coli (ATCC BAA-2469) = assay: Antibiotic susceptibility test (microdilution broth), NDM-1 producing E. coli clinical isolate; assay type: cell-based; conditions: Escherichia coli, ATCCBAA2469, read-out: MIC against multi-drug resistant NDM-1 producing E. coli ATCC BAA-2469
Procedure: as §1, §2

E. coli MG1655 [2] = assay: Antibiotic susceptibility test (microdilution broth), E. coli MG1655; assay type: cell-based, Escherichia coli; conditions: for MIC: Escherichia coli
Procedure: as §1, §2

E. coli MG1655 [3] = assay: Accumulation assay in whole-cell E. coli, LC-MS/MS quantification; conditions: for accumulation in E. coli: E. coli MG1655 whole cells, 37° C., LC-MS/MS; for accumulation in E. coli / accumulation in E. coli (in words): 50 μM compound, 10 minutes; for accumulation in E. coli (in words): E. coli whole cells; for accumulation upon co-treatment with colistin: E. coli, 6.0 μM colistin sulfate added before compound
Description: Antimicrob. Agents Chemother. 36, 2622-2627, (1992); Davis, T. D., Gerry, C. J. & Tan, D. S. General platform for systematic quantitative evaluation of small-molecule permeability in bacteria. ACS Chem. Biol. 9, 2535-2544, (2014); and Cai, H., Rose, K., Liang, L. H., Dunham, S. & Stover, C. Development of a liquid chromatography/mass spectrometry-based drug accumulation assay in Pseudomonas aeruginosa. Anal. Biochem. 385, 321-325, (2009); with LC-MS/MS used to quantify the accumulation of each compound. E. coli MG1655 was utilized for these experiments as this strain has been only minimally altered from its K-12 progenitor. To ensure the assay was reporting on compound accumulation, as opposed to non-specific affinity for the outer membrane, several control experiments were conducted. The assay method was evaluated with antibiotics that have known high or low levels of accumulation, based on published accumulation data and antibacterial activity against E. coli. […] Colistin is known to potentiate the activity of low-accumulating antibiotics by aiding the diffusion of lipophilic compounds across the membrane.
For each replicate, 2.5 mL of an overnight culture of E. coli was diluted into 250 mL of fresh Luria Bertani (LB) broth (Lennox) and grown at 37° C. with shaking to an OD600=0.55. The bacteria were pelleted at 3,220 rcf for 10 minutes at 4° C. and the supernatant was discarded. The pellets were re-suspended in 40 mL of phosphate buffered saline (PBS) and pelleted as before, and the supernatant was discarded. The pellets were re-suspended in 8.8 mL of fresh PBS and aliquoted into ten 1.5 mL eppendorf tubes (875 μL each). The number of colony forming units (CFUs) was determined via a calibration curve. The samples were equilibrated at 37° C. with shaking for 5 minutes, compound was added ([final]=50 μM), and then samples were incubated at 37° C. with shaking for 10 minutes. […] After incubation, 800 μL of the cultures were carefully layered on 700 μL of silicone oil (9:1 AR20/Sigma High Temperature, cooled to −78° C.). Bacteria were pelleted through the oil by centrifuging at 13,000 rcf for 2 minutes at room temperature (supernatant remains above the oil); the supernatant and oil were then removed by pipetting. To lyse the samples, each pellet was dissolved in 200 μL of water, and then they were subjected to three freeze-thaw cycle of three minutes in liquid nitrogen followed by three minutes in a water bath at 65° C. The lysates were pelleted at 13,000 rcf for 2 minutes at room temperature and the supernatant was collected (180 μL). The debris was re-suspended in 100 μL of methanol and pelleted as before. The supernatants were removed and combined with the previous supernatants collected. Finally, remaining debris was removed by centrifuging at 20,000 rcf for 10 minutes at room temperature. Supernatants were analyzed by LC-MS/MS.
Samples were analyzed with the 5500 QTRAP LC/MS/MS system (AB Sciex, Foster City, CA) with a 1200 series HPLC system (Agilent Technologies, Santa Clara, CA) including a degasser, an autosampler, and a binary pump. The LC separation was performed on an Agilent SB-Aq column (4.6×50 mm, 5 μm) (Agilent Technologies, Santa Clara, CA) with mobile phase A (0.1% formic acid in water) and mobile phase B (0.1% formic acid in acetonitrile). The flow rate was 0.3 mL/min. The linear gradient was as follows: 0-3 min, 100% A; 10-15 min, 2% A; 15.5-21 min, 100% A. The autosampler was set at 5° C. The injection volume was 15 μL. Mass spectra were acquired with both positive electrospray ionization (ESI) at the ion spray voltage of 5500 V and negative ESI at the ion spray voltage of −4500 V. The source temperature was 450° C. The curtain gas, ion source gas 1, and ion source gas 2 were 33, 50, and 65, respectively.

Staphylococcus aureus = assay: Antibiotic susceptibility test (microdilution broth), S. aureus; assay type: cell-based
[4] = tested on: ΔompR strain of E. coli (OmpF and OmpC knockout) vs parental E. coli BW25113
Description: A ΔompR strain of E. coli from the KEIO knockout collection was therefore chosen to effectively knockout both OmpF and OmpC (knockout was validated by analyzing the outer membrane proteins of the ΔompR strain compared to the parental strain, data not shown).

**Q.** How did the “activity against other clinical isolates of E. coli, A. baumannii, K. pneumonia, and E. cloacae (in words)” value ([1]; clinical isolates) turn out when Cc1cc(=O)n(C)c2c3c4c(cc12)c(C)cc(=O)n4C(CN)CO3 (centres unmarked) [Compound 6DNM-NH3] was run?
**A.** good activity against most of the other clinical isolates

**Q.** What about the “activity against expanded panel of Gram-negative pathogens (in words)” value [1] of the same compound?
**A.** antibacterial activity against all of these Gram-negative pathogens except P. aeruginosa

**Q.** And the MIC (E. coli (ATCC BAA-2469))?
**A.** 4 µg/mL (≈ 12.3 µM)

**Q.** What about the MIC (E. coli MG1655 [2]; MG1655, microdilution broth, MH broth, read-out: MIC against E. coli MG1655) of the same compound?
**A.** 0.5 µg/mL (≈ 1.54 µM)

**Q.** What about the “accumulation in E. coli” value (E. coli MG1655 [3]) of the same compound?
**A.** 1114 nmol/10^12 CFUs

**Q.** And the “activity against S. aureus (in words)” value (Staphylococcus aureus)?
**A.** retains activity

**Q.** And the “accumulation in ΔompR strain compared to parental/WT strain” value [4]?
**A.** decrease in accumulation

**Q.** How did the “activity against E. coli (in words)” value (E. coli MG1655 [2]) turn out when Cc1cc(=O)n(C)c2c3c4c(cc12)c(C)cc(=O)n4C(CC(=O)O)CO3 (centres unmarked) [Compound 6DNM-acid] was run?
**A.** no activity

**Q.** What about the “accumulation in E. coli (in words)” value (E. coli MG1655 [3]) of the same compound?
**A.** do not accumulate

**Q.** CC(=O)NCC1COc2c3c(cc4c(C)cc(=O)n1c24)c(C)cc(=O)n3C (centres unmarked) [Compound 6DNM-amide] was tested. Which “activity against E. coli (in words)” value (E. coli MG1655 [2]) did it give?
**A.** no activity

**Q.** What about the “accumulation in E. coli (in words)” value (E. coli MG1655 [3]) of the same compound?
**A.** do not accumulate

**Q.** Cc1cc(=O)n(C)c2c3c4c(cc12)c(C)cc(=O)n4CCO3 [Compound 6DNM] was tested. Which “activity against expanded panel of Gram-negative pathogens (in words)” value [1] did it give?
**A.** no notable activity

**Q.** And the MIC (E. coli MG1655 [2]; MG1655, read-out: MIC versus E. coli)?
**A.** > 32 µg/mL

**Q.** What about the “accumulation in E. coli” value (E. coli MG1655 [3]) of the same compound?
**A.** 298 nmol/10^12 CFUs

**Q.** What about the MIC (Staphylococcus aureus; Staphylococcus aureus, microdilution broth, MH broth, read-out: MIC against Staphylococcus aureus) of the same compound?
**A.** 0.06 to 1 µg/mL (≈ 0.202 to 3.37 µM)

**Q.** NC1COC2C(O)COC12 (centres unmarked) [Compound 20, mono-amine isomannide] was tested. Which “accumulation in E. coli (in words)” value (E. coli MG1655 [3]) did it give?
**A.** does not accumulate

**Q.** With O=C(O)c1cn(C2CC2)c2cc(N3CCNCC3)c(F)cc2c1=O [ciprofloxacin, reference compound] as the compound, how does the “reduction of CFUs during accumulation assay (factor)” value (E. coli MG1655 [3]; treatment for 10 minutes, 50 μM) read?
**A.** five

**Q.** What about the “accumulation in ΔompR strain compared to parental/WT strain” value [4] of the same compound?
**A.** significant decrease in accumulation

**Q.** Which “accumulation upon co-treatment with colistin” value (E. coli MG1655 [3]) does the source give for CO[C@@H]1[C@@H](OC(N)=O)[C@@H](O)[C@H](Oc2ccc3c(O)c(NC(=O)c4ccc(O)c(CC=C(C)C)c4)c(=O)oc3c2C)OC1(C)C [novobiocin, reference compound] here?
**A.** increase in accumulation

**Q.** CO[C@H]1/C=C/O[C@@]2(C)Oc3c(C)c(O)c4c(O)c(c(/C=N/N5CCN(C)CC5)c(O)c4c3C2=O)NC(=O)/C(C)=C\C=C\[C@H](C)[C@H](O)[C@@H](C)[C@@H](O)[C@@H](C)[C@H](OC(C)=O)[C@@H]1C [rifampicin, reference compound] was tested. Which “accumulation upon co-treatment with colistin” value (E. coli MG1655 [3]) did it give?
**A.** increase in accumulation
